This is an account of results in US20040215284A1, “Treatment of neuromuscular dysfunction of the lower urinary tract with selective mGlu5 antagonists” (Recordati S.A., priority 2003, published 2004).

The IC50 is the concentration that inhibits the measured activity by half. As usually defined, the Ki is a measure of affinity in units of concentration, obtained from inhibition or displacement.

In assay [1] the test system is rhythmic bladder-voiding contractions in anaesthetised rats. Put plainly: Rhythmic bladder-voiding contractions induced by bladder filling in anaesthetised rats. The following applies: for BLADDER CONTRACTIONS quiescence time: mean ± SEM. In kind it is in vivo, rat. The procedure:
The animals were housed with free access to food and water and maintained on a forced 12-hour alternating light-dark cycle at 22-24° C. for at least one week, except during the experiment. […] The catheter was tied in place with a ligature around the external urethral orifice and was connected to conventional pressure transducers (Statham P23 ID/P23 XL). […] The bladder was then filled via the recording catheter by incremental volumes of warm (37° C.) saline until reflex bladder-voiding contractions occurred (usually 0.8-1.5 ml). For intravenous injection of bioactive compounds, PE 50 polyethylene tubing filled with physiological saline was inserted into the jugular vein.
From the cystometrogram, the number of contractions recorded 15 minutes before (basal values) and after treatment, as well as the mean amplitude of these contractions (mean height of the peaks in mmHg), were evaluated.
Morphine was tested, too, as a reference standard for this model.

In assay [2] the target is T1, mGlu5 (Rattus norvegicus, UniProt P31424). The following applies: rat forebrain.
Description: (§1) Male Sprague Dawley rats (200-300 g, Charles River, Italy) were killed by cervical dislocation and the forebrain (cortex, striatum and hippocampus) and cerebellum were homogenized (2×20 sec) in 50 vols of cold 50 mM Tris buffer pH 7.4, using a Politron homogenizer (Kinematica). […] The final pellets were frozen and stored at −80° C. until use.
(§2) ii) mGlu5: On experimental section pellets from rat forebrain were resuspended in 100 vols of 20 mM HEPES, 2 mM MgCl2, 2 mM CaCl2, pH 7.4.
(§3) The filters were then washed with cold buffer and the radioactivity retained on the filters was counted by liquid scintillation spectrometry.
(§4) Data were expressed as the mean of pKi(−log Ki)±SE.
Another assay deals with mGlu2 (Homo sapiens, UniProt Q14416). The following applies: literature, functional models; cited from earlier work.
In a further assay the target is mGlu1a (Homo sapiens, UniProt Q13255). Conditions: literature, functional models; cited from earlier work.
Another assay has as its target mGlu7 (Homo sapiens, UniProt Q14831). The following applies: literature, functional models; cited from earlier work.
Assay [3] has as its target T1, mGlu5. Put plainly: biochemical.
Description: as §1, §2, §3, §4
The next assay deals with T2, mGlu1 (Rattus norvegicus, UniProt P23385).
T2 construct: pellets from rat cerebellum were resuspended; from tissue; host or cells: rat cerebellum membranes (male Sprague Dawley)
Put plainly: Radioligand binding assay at mGlu1, [3H]quisqualic acid, rat cerebellum membranes. The following applies: [3H]quisqualic acid.

Another assay has as its target mGlu8 (Homo sapiens, UniProt O00222). The following applies: literature, functional models; cited from earlier work.
In assay [4] the target is Group II (mGlu2 + mGlu3) receptors. Put plainly: Radioligand binding assay at Group II (mGlu2+mGlu3), [3H]LY341495, rat forebrain membranes. Conditions: rat forebrain, [3H]LY341495.
Description: as §1
iii) Group II (mGlu2+mGlu3): On experimental section pellets from rat forebrain were resuspended in 250 vols of 20 mM HEPES, 2 mM MgCl2, 2 mM CaCl2, pH 7.4. The membranes were incubated in a final volume of 1 ml for 30 min at 0° C. with 1 nM [^3H]LY341495 in the absence or presence of competing drugs.
as §3, §4
For the next assay, the target named is mGlu4a (Homo sapiens, UniProt Q14833). The following applies: literature, functional models; cited from earlier work.
A further assay addresses mGlu6 (Homo sapiens, UniProt O15303). The following applies: literature, functional models; cited from earlier work.
The subject of a further assay is conscious rats. Put plainly: Cystometric parameters in conscious rats (bladder infused with saline). It counts as in vivo, rat. The procedure: Male Sprague-Dawley rats [Crl: CD® (SD) IGS BR] of 300-400 g b.w. supplied by Charles River Italia were used. The animals were housed with free access to food and water and maintained on a forced 12-hour-light/12-hour-dark cycle at 22-24° C. of temperature, except during the experiment. To quantify urodynamic parameters in conscious rats, cystometrographic studies were performed according to the procedure previously reported (Guarneri et al., Pharmacol. Res. 24: 75, 1991).
Briefly, the rats were anaesthetized by intraperitoneal administration of 3 ml/kg of Equithensin solution (pentobarbital 30 mg/kg and chloral hydrate 125 mg/kg) and placed in a supine position. An approximately 10 mm long midline incision was made in the shaved and cleaned abdominal wall. The urinary bladder was gently freed from adhering tissues, emptied and then cannulated via an incision in the bladder body, using a polyethylene cannula (0.58 mm internal diameter, 0.96 mm external diameter) which was permanently sutured with silk thread. For intravenous bolus injection, a similar polyethylene tubing filled with physiological saline containing sodium heparin (40 I.U./ml) was inserted into the jugular vein. The cannulae were exteriorized through a subcutaneous tunnel in the retroscapular area, where they were connected to a plastic adapter in order to avoid the risk of removal by the animal. For drug testing, the rats were utilized one day after implantation.
On the day of the experiment, the rats were placed in modified Bollman cages, i.e., restraining cages that were large enough to permit the rats to adopt a normal crouched posture, but narrow enough to prevent turning around. After a stabilization period of about 20 minutes, the free tip of the bladder cannula was connected through a T-shaped tube to a pressure transducer (Statham P23XL) and to a peristaltic pump (Gilson minipuls 2) for continuous infusion of a warm (37° C.) saline solution into the urinary bladder, at a constant rate of 0.1 ml/minute. The intraluminal-pressure signal during infusion of saline into the bladder was continuously recorded on a polygraph (Rectigraph-8K San-ei with BM614/2 amplifier from Biomedica Mangoni) and, from the cystometrogram, two urodynamic parameters were evaluated: bladder volume capacity (BVC) and micturition pressure (MP). BVC (in ml) is defined as the volume of saline infused into the bladder necessary to induce detrusor contraction followed by micturition. MP (in mmHg) is defined as the maximal intravesical pressure caused by contraction during micturition. Basal BVC and MP values were evaluated as the mean of the values observed in the cystometrograms recorded in an initial period of 30-60 minutes. At this point in the assay, the infusion was interrupted and the test compounds were administered either intravenously by the jugular catheter or orally by a stomach tube. The bladder infusion restarted and changes in BVC and MP were evaluated from the mean values obtained in the cystometrograms observed during 1, 2, 3, 4, and 5 hours after treatment. The compounds were administered in a volume of 1 ml/kg and 2 ml/kg for intravenous and oral administration routes, respectively. Groups of control animals received the same amount of vehicle corresponding to a solution of 8% dimethylformamide and 8% Tween 80 in water (final concentrations) for intravenous, or a solution of 0.5% methocel in water for oral route.
Under the given test conditions, measurement of BVC is equivalent to measurement of interval time between micturitions.
All data were expressed as mean±standard error. The percent changes of BVC and MP relative to the basal values, as well as Δ values (difference in ml or in mmHg) of BVC and MP (BVC or MP at time “x” minus basal value), were also evaluated for each rat/time. In the figures, data were reported as percentage changes relative to basal values. […]

Another assay deals with mGlu5a (Homo sapiens, UniProt P41594). Conditions: literature, functional models; cited from earlier work.
Sequence of mGlu5a (P41594 21-1180 isoform P41594-2 limits assumed): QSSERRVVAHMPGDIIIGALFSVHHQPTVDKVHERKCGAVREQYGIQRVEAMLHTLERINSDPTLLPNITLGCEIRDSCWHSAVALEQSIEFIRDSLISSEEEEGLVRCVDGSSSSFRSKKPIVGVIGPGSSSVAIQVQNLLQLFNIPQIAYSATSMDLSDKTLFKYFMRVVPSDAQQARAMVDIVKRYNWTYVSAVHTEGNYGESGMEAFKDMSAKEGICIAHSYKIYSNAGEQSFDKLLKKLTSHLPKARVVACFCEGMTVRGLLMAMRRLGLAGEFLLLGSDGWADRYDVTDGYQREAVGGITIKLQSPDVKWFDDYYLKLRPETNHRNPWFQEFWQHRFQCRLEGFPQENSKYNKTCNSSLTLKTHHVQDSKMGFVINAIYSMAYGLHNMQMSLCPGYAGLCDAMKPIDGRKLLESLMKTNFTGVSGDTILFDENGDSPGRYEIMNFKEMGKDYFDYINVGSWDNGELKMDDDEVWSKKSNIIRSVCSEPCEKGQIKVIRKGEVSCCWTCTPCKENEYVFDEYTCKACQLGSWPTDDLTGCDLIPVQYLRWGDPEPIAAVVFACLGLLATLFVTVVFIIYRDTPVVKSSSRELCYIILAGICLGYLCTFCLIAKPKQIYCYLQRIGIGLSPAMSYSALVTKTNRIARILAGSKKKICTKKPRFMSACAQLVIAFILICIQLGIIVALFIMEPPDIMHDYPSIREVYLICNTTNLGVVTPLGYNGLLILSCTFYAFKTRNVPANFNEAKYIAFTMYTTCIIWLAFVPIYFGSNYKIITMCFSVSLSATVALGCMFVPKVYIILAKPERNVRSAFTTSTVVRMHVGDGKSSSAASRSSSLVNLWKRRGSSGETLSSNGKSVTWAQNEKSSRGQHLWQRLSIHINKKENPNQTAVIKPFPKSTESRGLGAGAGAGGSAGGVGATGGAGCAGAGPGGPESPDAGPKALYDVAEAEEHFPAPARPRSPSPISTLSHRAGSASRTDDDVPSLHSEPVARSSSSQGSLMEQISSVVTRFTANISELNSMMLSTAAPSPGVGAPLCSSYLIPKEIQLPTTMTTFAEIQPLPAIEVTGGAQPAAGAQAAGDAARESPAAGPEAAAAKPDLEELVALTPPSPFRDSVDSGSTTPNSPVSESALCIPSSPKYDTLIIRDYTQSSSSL

T1 sequence (P31424 21-1203): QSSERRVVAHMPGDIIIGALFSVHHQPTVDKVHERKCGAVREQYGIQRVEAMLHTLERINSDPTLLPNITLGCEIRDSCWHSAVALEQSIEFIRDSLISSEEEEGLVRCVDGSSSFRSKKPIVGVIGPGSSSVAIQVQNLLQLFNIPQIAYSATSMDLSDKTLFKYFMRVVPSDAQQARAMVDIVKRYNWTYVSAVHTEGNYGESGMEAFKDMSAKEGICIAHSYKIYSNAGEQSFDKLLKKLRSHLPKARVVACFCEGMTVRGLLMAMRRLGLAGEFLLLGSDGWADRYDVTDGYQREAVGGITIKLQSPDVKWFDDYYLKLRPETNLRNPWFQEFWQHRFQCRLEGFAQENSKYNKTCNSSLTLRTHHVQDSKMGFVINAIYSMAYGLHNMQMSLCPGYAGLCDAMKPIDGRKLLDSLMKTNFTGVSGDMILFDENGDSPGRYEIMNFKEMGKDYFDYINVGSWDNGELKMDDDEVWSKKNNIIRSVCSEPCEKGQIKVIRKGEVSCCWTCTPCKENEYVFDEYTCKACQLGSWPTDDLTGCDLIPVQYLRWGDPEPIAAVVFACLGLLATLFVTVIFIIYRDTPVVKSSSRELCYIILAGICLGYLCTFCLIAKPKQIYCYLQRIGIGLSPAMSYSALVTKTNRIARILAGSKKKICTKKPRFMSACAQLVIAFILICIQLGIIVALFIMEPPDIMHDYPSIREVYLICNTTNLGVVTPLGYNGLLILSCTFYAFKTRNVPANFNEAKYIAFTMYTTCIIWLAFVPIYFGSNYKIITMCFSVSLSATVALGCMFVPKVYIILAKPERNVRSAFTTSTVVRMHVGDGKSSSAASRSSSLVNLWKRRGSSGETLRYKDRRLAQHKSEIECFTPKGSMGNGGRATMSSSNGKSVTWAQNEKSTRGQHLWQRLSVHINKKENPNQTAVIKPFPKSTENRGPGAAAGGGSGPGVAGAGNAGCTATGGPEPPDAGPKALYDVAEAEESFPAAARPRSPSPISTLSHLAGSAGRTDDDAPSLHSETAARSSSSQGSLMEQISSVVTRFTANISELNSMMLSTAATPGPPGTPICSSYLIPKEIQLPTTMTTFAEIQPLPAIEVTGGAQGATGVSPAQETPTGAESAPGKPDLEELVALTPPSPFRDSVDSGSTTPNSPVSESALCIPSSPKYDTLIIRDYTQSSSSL
Sequence of mGlu1a (Q13255 19-1194): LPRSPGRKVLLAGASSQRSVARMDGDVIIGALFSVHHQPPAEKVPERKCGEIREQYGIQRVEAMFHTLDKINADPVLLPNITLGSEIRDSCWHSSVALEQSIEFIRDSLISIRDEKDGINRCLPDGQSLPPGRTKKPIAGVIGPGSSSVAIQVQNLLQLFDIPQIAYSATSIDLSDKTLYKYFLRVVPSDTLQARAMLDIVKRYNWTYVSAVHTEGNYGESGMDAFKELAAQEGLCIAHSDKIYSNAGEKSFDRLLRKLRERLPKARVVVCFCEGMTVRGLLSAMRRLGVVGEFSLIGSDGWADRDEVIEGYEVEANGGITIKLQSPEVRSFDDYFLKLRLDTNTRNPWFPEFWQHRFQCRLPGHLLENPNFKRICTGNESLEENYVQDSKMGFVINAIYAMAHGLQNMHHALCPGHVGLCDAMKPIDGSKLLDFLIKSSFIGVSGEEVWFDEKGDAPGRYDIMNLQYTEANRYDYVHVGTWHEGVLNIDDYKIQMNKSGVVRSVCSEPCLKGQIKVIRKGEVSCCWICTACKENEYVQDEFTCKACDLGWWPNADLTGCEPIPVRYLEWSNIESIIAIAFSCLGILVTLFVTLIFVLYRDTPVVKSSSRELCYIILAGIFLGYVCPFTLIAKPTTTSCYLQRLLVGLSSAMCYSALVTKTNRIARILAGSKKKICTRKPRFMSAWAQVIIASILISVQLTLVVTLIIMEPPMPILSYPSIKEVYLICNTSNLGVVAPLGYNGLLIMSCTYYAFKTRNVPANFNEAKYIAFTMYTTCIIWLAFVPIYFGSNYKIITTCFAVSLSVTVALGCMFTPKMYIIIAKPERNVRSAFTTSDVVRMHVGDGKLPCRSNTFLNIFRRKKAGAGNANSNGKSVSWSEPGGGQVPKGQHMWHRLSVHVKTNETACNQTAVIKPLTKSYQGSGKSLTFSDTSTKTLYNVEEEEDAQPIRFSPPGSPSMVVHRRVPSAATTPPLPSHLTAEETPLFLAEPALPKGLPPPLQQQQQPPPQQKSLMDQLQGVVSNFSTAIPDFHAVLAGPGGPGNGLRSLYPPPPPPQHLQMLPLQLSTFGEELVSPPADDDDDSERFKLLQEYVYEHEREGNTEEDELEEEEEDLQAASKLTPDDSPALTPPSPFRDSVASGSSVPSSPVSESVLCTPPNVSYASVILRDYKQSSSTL
Sequence of mGlu6 (O15303 25-877): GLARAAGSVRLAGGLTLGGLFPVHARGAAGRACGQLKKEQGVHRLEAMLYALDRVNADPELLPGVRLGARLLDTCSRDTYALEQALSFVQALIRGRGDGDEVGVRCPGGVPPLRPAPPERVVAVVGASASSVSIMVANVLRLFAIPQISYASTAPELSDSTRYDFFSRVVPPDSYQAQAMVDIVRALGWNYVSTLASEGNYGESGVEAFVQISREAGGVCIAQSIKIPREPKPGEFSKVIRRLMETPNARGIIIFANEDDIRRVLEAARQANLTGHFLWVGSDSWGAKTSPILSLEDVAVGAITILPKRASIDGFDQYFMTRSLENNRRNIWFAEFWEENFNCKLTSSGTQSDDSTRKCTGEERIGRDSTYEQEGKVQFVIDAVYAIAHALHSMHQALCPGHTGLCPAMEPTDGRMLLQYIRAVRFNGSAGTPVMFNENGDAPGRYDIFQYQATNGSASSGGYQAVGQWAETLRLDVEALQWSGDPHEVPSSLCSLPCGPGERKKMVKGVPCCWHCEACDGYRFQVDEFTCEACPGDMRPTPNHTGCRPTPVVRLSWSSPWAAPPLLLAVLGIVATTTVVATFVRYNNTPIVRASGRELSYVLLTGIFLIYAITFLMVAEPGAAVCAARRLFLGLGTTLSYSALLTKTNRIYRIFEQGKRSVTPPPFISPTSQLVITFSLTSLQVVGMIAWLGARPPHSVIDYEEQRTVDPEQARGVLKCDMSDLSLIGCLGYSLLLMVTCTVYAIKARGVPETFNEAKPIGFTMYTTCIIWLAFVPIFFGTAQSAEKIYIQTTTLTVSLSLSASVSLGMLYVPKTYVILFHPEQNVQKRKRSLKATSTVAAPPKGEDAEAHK

With `Cc1cccc(C=Cc2ccccc2)n1` [SIB 1893, 2-methyl-6-(2-phenylethenyl)pyridine], the “BLADDER CONTRACTIONS quiescence time” value in [1] (1000 μg/kg i.v.) stood at 4.44 ± 1.05 min; in [1] (2000 μg/kg i.v.) it was 8.00 ± 0.78 min; in assay [1] (3000 μg/kg i.v.) it was 15.57 ± 1.34 min. In addition, the “activity as inhibitors of isovolumic voiding contractions (in words)” value in assay [1] (i.v., anaesthetised rats) is on record as “active”. Also, in assay [1] (i.v., anaesthetised rats), the “amplitude of contractions when contractions resumed, relative to before treatment (in words)” value is “no difference in the amplitude”. The “ED10min (extrapolated dose inducing 10 min of bladder quiescence)” value in assay [1] (i.v., linear regression) is 1.928 mg/kg. Further, the “inhibition of the specific binding of [3H]MPEP to mGlu5 receptor (in words)” value at mGlu5 [2] is listed as “weaker affinity”. In addition, the half-maximal inhibitory concentration (IC50) at mGlu2, on mGlu1a, at mGlu7, at mGlu8, on mGlu4a and at mGlu6 was > 30 µM each time. Also, the concentration for half-maximal inhibition (IC50) on mGlu5a is 0.3 µM. In addition, the inhibitory constant (Ki) at mGlu5 [3] was 0.859 µM; at mGlu1 it was > 10 µM; in assay [4], > 10 µM. Further, in the assay with conscious rats (50 mg/kg i.v., FIG. 1), the “bladder volume capacity (BVC)” value is recorded as “significantly increased the BVC only in comparison with the basal values”. The “micturition pressure (MP)” value in the assay with conscious rats (i.v., MPEP 3 and 10 mg/kg, SIB 1893 50 mg/kg, FIG. 2) is given as “only mild effects on the micturition pressure”.
